# Test results as given in ChEMBL document CHEMBL1155147, “Interdomain loop mutation Asp190Cys of the tetracycline efflux transporter TetA(B) decreases affinity for substrate” (2007).
# Changes are numbered by the printed parent chain. In names and notes the source's numbering stands.
# B1: Tetracycline resistance protein, class B (Escherichia coli), P02980 (protein)
# chain: MNSSTKIALVITLLDAMGIGLIMPVLPTLLREFIASEDIANHFGVLLALYALMQVIFAPWLGKMSDRFGRRPVLLLSLIGASLDYLLLAFSSALWMLYLGRLLSGITGATGAVAASVIADTTSASQRVKWFGWLGASFGLGLIAGPIIGGFAGEISPHSPFFIAALLNIVTFLVVMFWFRETKNTRDNTDTEVGVETQSNSVYITLFKTMPILLIIYFSAQLIGQIPATVWVLFTENRFGWNSMMVGFSLAGLGLLHSVFQAFVAGRIATKWGEKTAVLLGFIADSSAFAFLAFISEGWLVFPVLILLAGGGIALPALQGVMSIQTKSHQQGALQGLLVSLTNATGVIGPLLFAVIYNHSLPIWDGWIWIIGLAFYCIIILLSMTFMLTPQAQGSKQETSA
# B2: Tetracycline resistance protein, class B (Escherichia coli), P02980 D190C (protein)
# chain: B1 chain with D190C
# Key:
# [1] = test system: Escherichia coli; test: Antibacterial activity against intact Escherichia coli DH5alpha expressing tetracycline efflux transporter TetA(B) Asp190Cys mutant gene; type: functional
# [2] = test system: Escherichia coli; test: Antibacterial activity against intact Escherichia coli DH5alpha expressing wild-type tetracycline efflux transporter TetA(B) gene; type: functional
# [3] = test system: Escherichia coli; test: Antibacterial activity against intact Escherichia coli DH5alpha; type: functional
# [4] = substrate: CN(C)[C@@H]1C(O)=C(C(N)=O)C(=O)[C@@]2(O)C(O)=C3C(=O)c4c(O)cccc4[C@@](C)(O)[C@H]3C[C@@H]12; test: Activity of tetracycline efflux transporter TetA(B) in Escherichia coli DH5alpha membrane vesicles assessed as [3H]tetracycline uptake per mg of protein; type: cell membranes
# [5] = substrate: CN(C)[C@@H]1C(O)=C(C(N)=O)C(=O)[C@@]2(O)C(O)=C3C(=O)c4c(O)cccc4[C@@](C)(O)[C@H]3C[C@@H]12; test: Activity of tetracycline efflux transporter TetA(B) in Escherichia coli DH5alpha membrane vesicles assessed as [3H]tetracycline uptake; type: cell membranes
# [6] = substrate: CN(C)[C@@H]1C(O)=C(C(N)=O)C(=O)[C@@]2(O)C(O)=C3C(=O)c4c(O)cccc4[C@@](C)(O)[C@H]3C[C@@H]12; test: Activity of tetracycline efflux transporter TetA(B) Asp190Cys mutant in Escherichia coli DH5alpha membrane vesicles assessed as [3H]tetracycline uptake; type: cell membranes
# [7] = substrate: CN(C)[C@@H]1C(O)=C(C(N)=O)C(=O)[C@@]2(O)C(O)=C3C(=O)c4c(O)cccc4[C@@](C)(O)[C@H]3C[C@@H]12; test: Activity of tetracycline efflux transporter TetA(B) Asp190Cys mutant in Escherichia coli DH5alpha membrane vesicles assessed as [3H]tetracycline uptake per mg of protein; type: cell membranes
Molecule,MIC [1] [µg/mL],MIC [2] [µg/mL],MIC [3] [µg/mL],Vmax [4] [pmol/min],Km [5] [µM],Km [6] [µM],Vmax [7] [pmol/min]
CN(C)[C@@H]1C(O)=C(C(N)=O)C(=O)[C@@]2(O)C(O)=C3C(=O)c4c(O)cccc4[C@@](C)(O)[C@H]3C[C@@H]12 [TETRACYCLINE],11,128,0.75,–,–,–,–
C[C@H]1c2cccc(O)c2C(=O)C2=C(O)[C@]3(O)C(=O)C(C(N)=O)=C(O)[C@@H](N(C)C)[C@@H]3[C@@H](O)[C@@H]21.O [DOXYCYCLINE],14,32,1.25,–,–,–,–
B1,–,–,–,1270,22,–,–
B2,–,–,–,–,–,83,1330
